This is an account of results in patent publication US8007782B2, “Combination bacteriolytic therapy for the treatment of tumors” (priority 2003, dated 2011).

Data set [1] has as its system tumor blood flow in HCT116 xenografts. The experiment in a line: Assessment of blood perfusion (Hoechst 33342) in HCT116 xenografts. It is filed as in vivo, mice. The settings on record: HTI-286 1.7 mg/kg or docetaxel 50 mg/kg iv, 3 and 24 hr after treatment. On the procedure: Three or 24 hours after treatment, mice were intravenously injected with Hoechst 33342 (40 mg/kg) and euthanized two minutes later. Tumors were cryosectioned and viewed by fluorescence microscopy after counter-staining with acridine orange (AO). Endothelial cells are stained blue when they have taken up the Hoechst 33342 dye. Adjacent sections were stained with MECA-32 monoclonal antibody, a vascular endothelium-specific marker. Arrows point towards normal blood vessels unaffected by HTI-286 treatment in overlying skin.
Mice bearing HCT116 xenografts of 300 to 500 mm3 were injected intravenously with anti-microtubule agents. At various times thereafter, they were intravenously injected with Hoechst 33342 (40 mg/kg), then euthanized two minutes later by CO2 narcosis. Tumors were fixed in Tissue-Tek OTC compound (Sakura Finetek, Torrance, Calif.) and stored at −80° C. Frozen sections 10 microns in thickness were prepared with a Leica Microsystems cryostat and counterstained with acridine orange, 7.5 ug/ml, in PBS for 5 minutes. […] At least three sections of each of three tumors, representing middle and distal parts of the tumor, were examined under fluorescence microscopy for each agent tested, and representative results are illustrated in the figures. […]

A short description of data set [2]: Mortality following COBALT. It counts as in vivo, nude mice. The settings on record: deaths within one week, pooled xenograft models.

Structures are written as SMILES.

Turning to `CN[C@H](C(=O)N[C@H](C(=O)N(C)[C@H](/C=C(\C)C(=O)O)C(C)C)C(C)(C)C)C(C)(C)c1ccccc1` [HTI-286, N,β,β-trimethyl-L-phenylalanyl-N^1-[(1S,2E)-3-carboxy-1-isopropylbut-2-enyl]-N^1,3-dimethyl-L-valinamide], in data set [1], the “blood flow to the tumors (Hoechst 33342 labelling)” value was “almost completely inhibited”. Besides, the “# dead (treatment-related deaths)” value in data set [2] (drug dose 1.7 mg/kg) was determined as 3; in data set [2] (drug dose 1.9 mg/kg), 3; in data set [2] (drug dose 2.0 mg/kg), 5. Further, the figures for the “dead (%)” value in data set [2] (drug dose 1.7 mg/kg), in data set [2] (drug dose 1.9 mg/kg) and in data set [2] (drug dose 2.0 mg/kg) were 2.9%, 5.4% and 10.6%, respectively.
